Paper PMC11172375, “Preclinical Evaluation of Biodistribution and Toxicity of [^211At]PSMA-5 in Mice and Primates for the Targeted Alpha Therapy against Prostate Cancer” (International Journal of Molecular Sciences, 2024)

Assays:
[1] = Biodistribution in cynomolgus monkey (planar/SPECT imaging, 24 h autopsy); assay type: in vivo; details: 9 MBq/kg i.v.
Description: (§1) [^211At]PSMA-5 was administered intravenously to 25 mice, and its biodistribution was evaluated. For the toxicity study, three doses of [^211At]PSMA-5 (5, 12, and 35 MBq/kg, single dose) or saline were intravenously administered to 10 mice/group for the main evaluation point on day 1, and 5-mice/group for recovery evaluation on day 14, adhering to the ICH M3 (R2) guidelines. The dosage was determined based on our previous study using [^211At]NaAt. The monkeys were monitored for 24 h post-administration of [^211At]PSMA-5 (9 MBq/kg).
Monkeys were anesthetized with intramuscular administration of ketamine (10 mg/kg) and xylazine (0.5 mg/kg) with isoflurane inhalation anesthesia. Planar and Single Photon Emission Computed Tomography (SPECT) imaging was performed in monkeys using a γ-camera system (E-cam, Siemens, Erlangen, Germany) immediately after administration to 1 h and at 3 and 24 h post-administration of [^211At]PSMA-5 (9 MBq/kg), targeting the X-rays emitted from the daughter nuclide ^211Po (energy window: 79 keV ± 20%). […]
Urine and feces samples were collected at each time point. […] Organ weights and radiation doses were measured using a γ-counter (model: 2480Wizard2, PerkinElmer) and γ-camera system (E-cam) by appropriate cross-calibration.

[2] = Hematological examination in monkeys; assay type: in vivo, cynomolgus monkeys; details: for %Lymph / Hb / Ht / Platelet / RBC / WBC: monkeys, 9 MBq/kg i.v.
Description: as §1
Monkeys were anesthetized with intramuscular administration of ketamine (10 mg/kg) and xylazine (0.5 mg/kg) with isoflurane inhalation anesthesia. Planar and Single Photon Emission Computed Tomography (SPECT) imaging was performed in monkeys using a γ-camera system (E-cam, Siemens, Erlangen, Germany) immediately after administration to 1 h and at 3 and 24 h post-administration of [^211At]PSMA-5 (9 MBq/kg), targeting the X-rays emitted from the daughter nuclide ^211Po (energy window: 79 keV ± 20%). Subsequent image analysis was performed by setting the regions of interest using Osirix MD software (Version 13, Pixmeo SARL, Bernex, Switzerland) and PMOD software (Version 3.903, PMOD Technologies, Fällanden, Switzerland). Blood samples were obtained pre-administration and at 1, 3, and 24 h post-administration, followed by euthanasia via bloodletting at 24 h.
(§2) A blood cell counter was used for the measurements (CB-1010; ARKRAY, Inc., Kyoto, Japan). Red blood cell count (RBC), hemoglobin concentration (Hb), hematocrit (Ht), white blood cell count (WBC), platelet count (platelet), lymphocytes (%Lymph), monocytes (%Mon), and granulocytes (%Gra) were calculated. Plasma was analyzed using a dry clinical chemistry analyzer (Spotchem D-00 QR D-02; ARKRAY, Inc., Kyoto, Japan). The levels of aspartate aminotransferase (AST), alanine aminotransferase (ALT), gamma-glutamyl transpeptidase (γ-GTP), lactate dehydrogenase (LDH), alkaline phosphatase (ALP), creatine kinase (CK), amylase (AMY), total bilirubin (TBIL), creatinine (CRE), urea nitrogen (BUN), glucose (GLU), total protein (TP), albumin (ALB), total cholesterol (TCHO), triglyceride (TG), and electrolytes (Na, K, and Cl) were measured.

[3] = Hematological examination in mice; assay type: in vivo, ICR mice; details: for %Lymph / Hb / Ht / Platelet / RBC / WBC: mice
Description: as §1, §2

For `O=C(O)CC[C@H](NC(=O)N[C@@H](CCCCNC(=O)[C@@H](Cc1ccc2ccccc2c1)NC(=O)c1ccc(CNC(=O)[C@@H](CCC(=O)O)NC(=O)[C@@H](CCC(=O)O)NC(=O)Cc2ccc([211At])cc2)cc1)C(=O)O)C(=O)O` [[^211At]PSMA-5], the cumulative fecal excretion [1] was 11.27 %ID, the cumulative urinary excretion [1] was 0.46 %ID and the “leukopenia (mainly lymphopenia)” value ([2]; cynomolgus monkeys, 9 MBq/kg, 24 h after administration) was “mild but significant leukopenia”. The “%Lymph” value ([2]; 1 h) was 44.0 ± 16.0%, the Hb ([2]; 1 h) was 10.3 ± 1.4 g/dL and the Ht ([2]; 1 h) was 32.9 ± 4.8%. For the same molecule, the Platelet ([2]; 1 h) was 263.7 ± 33.0 10^3 cell/µL, the RBC ([2]; 1 h) was 4.30 ± 0.30 10^6 cell/µL and the WBC ([2]; 1 h) was 10.1 ± 0.7 10^3 cell/µL. For the same molecule, the “%Lymph” value ([2]; 3 h) was 52.0 ± 4.5%, the Hb ([2]; 3 h) was 11.2 ± 0.8 g/dL and the Ht ([2]; 3 h) was 35.4 ± 2.5%. The Platelet ([2]; 3 h) was 306.8 ± 41.2 10^3 cell/µL, the RBC ([2]; 3 h) was 4.70 ± 0.00 10^6 cell/µL and the WBC ([2]; 3 h) was 6.7 ± 1.4 10^3 cell/µL. For the same molecule, the “%Lymph” value ([2]; 24 h) was 23.7 ± 1.1%, the Hb ([2]; 24 h) was 9.9 ± 0.5 g/dL and the Ht ([2]; 24 h) was 31.8 ± 1.5%. For the same molecule, the Platelet ([2]; 24 h) was 269.7 ± 60.8 10^3 cell/µL, the RBC ([2]; 24 h) was 4.20 ± 0.10 10^6 cell/µL and the WBC ([2]; 24 h) was 5.3 ± 0.8 10^3 cell/µL. The “blood examination versus control group” value ([3]; mice, 5, 12 and 35 MBq/kg, day 1 or day 14) was “no significant difference”, the “%Lymph” value ([3]; 5 MBq/kg i.v., day 1) was 66.3 ± 15.8% and the Hb ([3]; 5 MBq/kg i.v., day 1) was 12.9 ± 0.4 g/dL. For the same molecule, the Ht ([3]; 5 MBq/kg i.v., day 1) was 42.5 ± 1.4%, the Platelet ([3]; 5 MBq/kg i.v., day 1) was 976 ± 524 10^3 cell/µL and the RBC ([3]; 5 MBq/kg i.v., day 1) was 7.8 ± 0.3 10^6 cell/µL. The WBC ([3]; 5 MBq/kg i.v., day 1) was 6.3 ± 4.1 10^3 cell/µL, the “%Lymph” value ([3]; 5 MBq/kg i.v., day 14) was 70 ± 8.8% and the Hb ([3]; 5 MBq/kg i.v., day 14) was 14.4 ± 0.4 g/dL. The Ht ([3]; 5 MBq/kg i.v., day 14) was 45.4 ± 1%, the Platelet ([3]; 5 MBq/kg i.v., day 14) was 1120 ± 555 10^3 cell/µL and the RBC ([3]; 5 MBq/kg i.v., day 14) was 8.7 ± 0.2 10^6 cell/µL. The WBC ([3]; 5 MBq/kg i.v., day 14) was 6.9 ± 3.3 10^3 cell/µL, the “%Lymph” value ([3]; 12 MBq/kg i.v., day 1) was 62.6 ± 14.2% and the Hb ([3]; 12 MBq/kg i.v., day 1) was 13.0 ± 0.8 g/dL. For the same molecule, the Ht ([3]; 12 MBq/kg i.v., day 1) was 42.6 ± 2.3%, the Platelet ([3]; 12 MBq/kg i.v., day 1) was 1329 ± 845 10^3 cell/µL and the RBC ([3]; 12 MBq/kg i.v., day 1) was 8.0 ± 0.5 10^6 cell/µL. For the same molecule, the WBC ([3]; 12 MBq/kg i.v., day 1) was 8.3 ± 4.9 10^3 cell/µL, the “%Lymph” value ([3]; 12 MBq/kg i.v., day 14) was 59.9 ± 12.1% and the Hb ([3]; 12 MBq/kg i.v., day 14) was 13.8 ± 0.9 g/dL. The Ht ([3]; 12 MBq/kg i.v., day 14) was 43.9 ± 3%, the Platelet ([3]; 12 MBq/kg i.v., day 14) was 922 ± 608 10^3 cell/µL and the RBC ([3]; 12 MBq/kg i.v., day 14) was 8.3 ± 0.6 10^6 cell/µL. The WBC ([3]; 12 MBq/kg i.v., day 14) was 6.9 ± 1.9 10^3 cell/µL, the “%Lymph” value ([3]; 35 MBq/kg i.v., day 1) was 53.5 ± 16.9% and the Hb ([3]; 35 MBq/kg i.v., day 1) was 12.8 ± 0.7 g/dL. The Ht ([3]; 35 MBq/kg i.v., day 1) was 42.3 ± 2%, the Platelet ([3]; 35 MBq/kg i.v., day 1) was 952 ± 444 10^3 cell/µL and the RBC ([3]; 35 MBq/kg i.v., day 1) was 7.9 ± 0.3 10^6 cell/µL. The WBC ([3]; 35 MBq/kg i.v., day 1) was 8.0 ± 5.2 10^3 cell/µL, the “%Lymph” value ([3]; 35 MBq/kg i.v., day 14) was 53.9 ± 6.4% and the Hb ([3]; 35 MBq/kg i.v., day 14) was 13.6 ± 0.7 g/dL. For the same molecule, the Ht ([3]; 35 MBq/kg i.v., day 14) was 43.1 ± 2.4%, the Platelet ([3]; 35 MBq/kg i.v., day 14) was 1331 ± 1037 10^3 cell/µL and the RBC ([3]; 35 MBq/kg i.v., day 14) was 8.4 ± 0.4 10^6 cell/µL. The WBC ([3]; 35 MBq/kg i.v., day 14) was 5.4 ± 2.8 10^3 cell/µL.
